For twelve compounds, IC50 results are on record in patent US20260258064A1 (SIRONAX LTD., priority 2023, published 2026).

Each structure is given as a SMILES string.

The target in the test is T1, SARM1 (50-724) (Homo sapiens, UniProt Q6SZW1).
T1 construct: Purified SARM1 (50-724) with a final concentration of 2 nM was pre-incubated with a test compound
T1 sequence (Q6SZW1 50-724): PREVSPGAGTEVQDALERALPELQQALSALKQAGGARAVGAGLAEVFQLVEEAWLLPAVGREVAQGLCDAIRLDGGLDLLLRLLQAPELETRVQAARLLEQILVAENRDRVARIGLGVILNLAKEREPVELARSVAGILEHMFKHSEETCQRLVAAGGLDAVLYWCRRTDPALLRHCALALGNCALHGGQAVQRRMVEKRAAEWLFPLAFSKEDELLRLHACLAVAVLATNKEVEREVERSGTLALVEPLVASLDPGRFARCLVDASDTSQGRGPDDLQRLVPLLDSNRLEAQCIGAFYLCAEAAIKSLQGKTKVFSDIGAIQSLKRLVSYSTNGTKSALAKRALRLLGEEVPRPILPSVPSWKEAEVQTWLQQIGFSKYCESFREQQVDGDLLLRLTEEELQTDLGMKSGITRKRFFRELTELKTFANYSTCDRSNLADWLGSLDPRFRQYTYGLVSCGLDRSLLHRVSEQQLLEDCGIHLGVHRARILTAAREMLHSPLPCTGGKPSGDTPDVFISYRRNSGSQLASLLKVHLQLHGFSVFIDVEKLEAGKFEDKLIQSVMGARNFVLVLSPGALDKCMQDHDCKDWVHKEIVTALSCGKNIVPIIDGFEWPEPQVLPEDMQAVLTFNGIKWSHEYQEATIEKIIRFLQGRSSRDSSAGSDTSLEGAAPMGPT
As to the kind of experiment: SARM1 (50-724) enzymatic assay (LC-MS/MS). The format is biochemical. The note with it: Purified SARM1 (50-724) 2 nM, NMN as activator, NAD+ as substrate, 1 h at room temperature, read-out: IC50 (SARM1 inhibitory activity). The procedure, abridged: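 Reaction buffer was Dulbecco's PBS. Compound and 2 nM human SARM1 (50-724) were pre-incubated 15 min at room temperature, then […] NAD^+ and 200 µM NMN activator were added for 1 h at room temperature. Acetonitrile (70%) stop, LC-MS/MS read-out, IC50 values.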

As to `NC(=O)COc1ccc(OC(F)(F)F)c(-n2cnnc2-c2nc3cc(C(F)(F)F)ccc3[nH]2)c1` [Compound 249, 2-(4-(trifluoromethoxy)-3-(3-(5-(trifluoromethyl)-1H-benzo[d]imidazol-2-yl)-4H-1,2,4-triazol-4-yl)phenoxy)acetamide], the IC50 – broadly, the concentration that inhibits the measured activity by half – is at most 100 nM.
`OCC1(c2cc(F)c3[nH]c(-c4nncn4-c4cnccc4C(F)(F)F)nc3c2)CC1` [Compound 441, (1-(7-fluoro-2-(4-(4-(trifluoromethyl)pyridin-3-yl)-4H-1,2,4-triazol-3-yl)-1H-benzo[d]imidazol-5-yl)cyclopropyl)methanol]: the IC50 was at most 100 nM.
For the compound `Cc1ccc2[nH]c(-c3cc(CO)cn3C3CCCC3)nc2c1` [Compound 16, (1-Cyclopentyl-5-(5-methyl-1H-benzo[d]imidazol-2-yl)-1H-pyrrol-3-yl)methanol], the IC50 fell in the range of 500 to 1000 nM.
Then `FC(F)(F)c1ccc2[nH]c(-c3nncn3-c3c(Cl)cccc3-c3ccn[nH]3)nc2c1` [Compound 168, 2-(4-(2-chloro-6-(1H-pyrazol-5-yl)phenyl)-4H-1,2,4-triazol-3-yl)-5-(trifluoromethyl)-1H-benzo[d]imidazole], with 100 to 500 nM; and `FC(F)(F)Oc1cnc(C2CC2)cc1-n1cnnc1-c1nc2cc(C(F)(F)F)ccc2[nH]1` [Compound 221, 2-(4-(2-cyclopropyl-5-(trifluoromethoxy)pyridin-4-yl)-4H-1,2,4-triazol-3-yl)-5-(trifluoromethyl)-1H-benzo[d]imidazole], with at most 100 nM; and `FC(F)(F)c1ccc2[nH]c(-c3nncn3-c3cnccc3C(F)(F)F)c(-c3ccncc3)c2c1` [Compound 386, 3-(4-pyridyl)-5-(trifluoromethyl)-2-[4-[4-(trifluoromethyl)-3-pyridyl]-1,2,4-triazol-3-yl]-1H-indole], with at most 100 nM.
For the compound `CC(NC12CC(C1)C2)c1cc(F)c2[nH]c(-c3nncn3-c3cnccc3C(F)(F)F)nc2c1` (stereo not drawn) [Compound 453, N-(1-(7-fluoro-2-(4-(4-(trifluoromethyl)pyridin-3-yl)-4H-1,2,4-triazol-3-yl)-1H-benzo[d]imidazol-5-yl)ethyl)bicyclo[1.1.1]pentan-1-amine], the IC50 was at most 100 nM.
With `CON(C)Cc1nnc(-c2nc3cc(C(F)(F)F)ccc3[nH]2)n1-c1cccc(F)c1Cl` [Compound 382, N-((4-(2-chloro-3-fluorophenyl)-5-(5-(trifluoromethyl)-1H-benzo[d]imidazol-2-yl)-4H-1,2,4-triazol-3-yl)methyl)-N,O-dimethylhydroxylamine] the figure was at most 100 nM; with `C[S+]([O-])Cc1nnc(-c2nc3cc(C(F)(F)F)ccc3[nH]2)n1-c1cccc(Cl)c1Cl` (single isomer, unassigned) [Compound 146, 2-(4-(2,3-dichlorophenyl)-5-((methylsulfinyl)methyl)-4H-1,2,4-triazol-3-yl)-5-(trifluoromethyl)-1H-benzo[d]imidazole], at most 100 nM; with `FC(F)(F)c1ccc2[nH]c(-c3nncn3-c3ccccc3Cl)nc2c1` [Example 105], at most 100 nM.
Then `FC(F)(F)c1ccncc1-n1cnnc1-c1nc2c(C3CC3)c(Cl)ccc2[nH]1` [Compound 333, 6-chloro-7-cyclopropyl-2-(4-(4-(trifluoromethyl)pyridin-3-yl)-4H-1,2,4-triazol-3-yl)-1H-benzo[d]imidazole], with 500 to 1000 nM; and `Fc1c(C2CC(F)(F)C2)ccc2[nH]c(-c3nncn3-c3cnccc3C(F)(F)F)nc12` [Compound 314, 5-(3,3-difluorocyclobutyl)-4-fluoro-2-(4-(4-(trifluoromethyl)pyridin-3-yl)-4H-1,2,4-triazol-3-yl)-1H-benzo[d]imidazole], with at most 100 nM.
